Data published in PubChem BioAssay (NCI).
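Exposure lasted 48 hours, with cells grown in 96-well plates and compounds tested at five concentrations. TGI denotes the concentration required for complete inhibition of growth.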

Columns and labels:
Assay in all cases: DTP human tumour cell line panel, 48 h
SN12C renal = tested on: SN12C renal
786-0 renal = tested on: 786-0 renal
MDA-N = tested on: MDA-N
COLO 205 colon = tested on: COLO 205 colon
SK-MEL-28 melanoma = tested on: SK-MEL-28 melanoma
K-562 leukemia = tested on: K-562 leukemia
TK-10 renal = tested on: TK-10 renal
SW-620 colon = tested on: SW-620 colon
SF-295 CNS = tested on: SF-295 CNS

SMILES | TGI (SN12C renal) | TGI (786-0 renal) | TGI (MDA-N) | TGI (COLO 205 colon) | TGI (SK-MEL-28 melanoma) | TGI (K-562 leukemia) | TGI (TK-10 renal) | TGI (SW-620 colon) | TGI (SF-295 CNS)
CSc1ccc(/C=C2\N=C(c3ccccc3)N(c3nc4cc(C)c(C)cc4s3)C2=O)cc1 | 72.4 µM | 61.6 µM | 33.3 µM | > 100 µM | > 100 µM | > 100 µM | > 100 µM | > 100 µM | > 100 µM
CC(C)Cc1cc2c(cc1O)CCC1C2CC[C@@]2(C)C1CC[C@@H]2O (stereo not given in full) | 21.9 µM | 23.6 µM | 19.7 µM | 28.9 µM | 28.8 µM | 19.6 µM | 23.1 µM | 25.4 µM | 20.2 µM
COc1ccccc1/C=C1\NC(=S)N(/C=C2\C(=O)Oc3ccccc3C2=O)C1=O | > 100 µM | > 100 µM |  | > 100 µM | > 100 µM |  | > 100 µM | > 100 µM | > 100 µM
O=C(C/C(=N/O)c1cc(-c2ccccc2)no1)c1ccccc1 | > 100 µM | 42.3 µM | > 100 µM | > 100 µM | > 100 µM | > 100 µM | > 100 µM |  | > 100 µM
C=C(CN1CC2C[C@](C(=O)OC)(c3cc4ccccc4[nH]3)C1C(OC)C2OC)S(=O)(=O)c1ccccc1 (stereo not given in full) | 11.3 µM | 10 µM | 8.94 µM | 6.14 µM | 25.5 µM | 10.6 µM | 17.4 µM | 22.8 µM | 14.5 µM
O=C(O)CCCc1ccc2ccccc2c1 | > 100 µM | > 100 µM | > 100 µM | > 100 µM | > 100 µM | > 100 µM | > 100 µM | > 100 µM | > 100 µM
CC(C)(C)c1cc2c(O)c(c1)Cc1cc(C(C)(C)C)cc(c1O)Cc1cc(C(C)(C)C)cc(c1O)Cc1cc(C(C)(C)C)cc(c1O)Cc1cc(C(C)(C)C)cc(c1O)Cc1cc(C(C)(C)C)cc(c1O)Cc1cc(C(C)(C)C)cc(c1O)Cc1cc(C(C)(C)C)cc(c1O)C2 | > 50 µM | > 50 µM | > 50 µM | > 50 µM | > 50 µM | > 50 µM | > 50 µM | > 50 µM | > 50 µM
O=C(CCCl)NNC1=NCCCN1 | > 100 µM | > 100 µM | > 100 µM | > 100 µM | > 100 µM | > 100 µM | > 100 µM | > 100 µM | > 100 µM
CN1CCC2(CC1)C(=NC1CCCCC1)NC(=S)N2c1ccccc1 | > 100 µM | > 100 µM |  | > 100 µM | > 100 µM | > 100 µM | > 100 µM | > 100 µM | > 100 µM
O=C(O)CC(Sc1ccccc1)c1ccccc1 (stereo not given) | > 100 µM | > 100 µM | > 100 µM | > 100 µM | > 100 µM | > 100 µM | > 100 µM | > 100 µM | > 100 µM
COP(=O)(OC)C(O)CC(C)C (stereo not given) | > 100 µM | > 100 µM | > 100 µM | > 100 µM | > 100 µM | > 100 µM | > 100 µM | > 100 µM | > 100 µM
